# Experimental data: US20050112573A1, “Method of detecting toxic substance” (priority 2001, published 2005)
# Test system: yeast genes (level of expressed mRNA)
# Experiment: DNA chip analysis of expressed mRNA of yeast genes after 2 h culture with a toxic chemical substance
# Format: cell-based, Saccharomyces cerevisiae S288C
# How it was run: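 Values are treated-to-control fluorescence ratios from a whole-yeast-genome DNA chip (65° C, over 12 h hybridization) using Cy3/Cy5-labelled cDNA from mRNA. Log-phase S288C cells in YPD at 25° C were exposed 2 h to a toxicant at sublethal, growth-inhibiting concentration.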
substance,measurement,setting,value
manganese ethylenebis(dithiocarbamate) [(8)],The level of expressed mRNA in the presence of chemical substance/,"yeast gene YKL086W, ratio to control without chemical",1.1
same,The level of expressed mRNA in the presence of chemical substance/The level of expressed mRNA in the absence of chemical substance,yeast gene YKL096W,0.5
same,The level of expressed mRNA in the presence of chemical substance/,"yeast gene YKL151C, ratio to control without chemical substance, 2 h culture",1.0
same,The level of expressed mRNA in the presence of chemical substance/,"yeast gene YKL153W, ratio to control without chemical substance, 2 h culture",0.7
same,The level of expressed mRNA in the presence of chemical substance/The level of expressed mRNA in the absence of chemical substance,yeast gene YKL165C,1.5
same,The level of expressed mRNA in the presence of chemical substance/The level of expressed mRNA in the absence of chemical substance,yeast gene YKL193C,1.4
same,The level of expressed mRNA in the presence of chemical substance/,"yeast gene YKL195W, ratio to control without chemical substance, 2 h culture",1.2
same,The level of expressed mRNA in the presence of chemical substance/in the absence of chemical substance,yeast gene YKR009C,0.9
same,The level of expressed mRNA in the presence of chemical substance/,"yeast gene YKR091W, ratio to control without chemical",1.3
same,The level of expressed mRNA in the presence of chemical substance/,"yeast gene YLR054C, ratio to control without chemical substance, 2 h culture",1.1
same,The level of expressed mRNA in the presence of chemical substance/The level of expressed mRNA in the absence of chemical substance,yeast gene YLR120C,0.9
same,The level of expressed mRNA in the presence of chemical substance/The level of expressed mRNA in the absence of chemical substance,yeast gene YLR136C,1.1
same,The level of expressed mRNA in the presence of chemical substance/,"yeast gene YLR149C, ratio to control without chemical substance, 2 h culture",1.1
same,The level of expressed mRNA in the presence of chemical substance/,"yeast gene YLR152C, ratio to control without chemical substance, 2 h culture",1.2
same,The level of expressed mRNA in the presence of chemical substance/The level of expressed mRNA in the absence of chemical substance,yeast gene YLR178C,0.9
same,The level of expressed mRNA in the presence of chemical substance/,"yeast gene YLR194C, ratio to control without chemical",1.0
same,The level of expressed mRNA in the presence of chemical substance/The level of expressed mRNA in the absence of chemical substance,yeast gene YLR250W,1.3
same,The level of expressed mRNA in the presence of chemical substance/,"yeast gene YLR324W, ratio to control without chemical substance, 2 h culture",1.0
same,The level of expressed mRNA in the presence of chemical substance/The level of expressed mRNA in the absence of chemical substance,yeast gene YLR327C,2.2
same,The level of expressed mRNA in the presence of chemical substance/,"yeast gene YLR350W, ratio to control without chemical substance, 2 h culture",1.0
same,The level of expressed mRNA in the presence of chemical substance/in the absence of chemical substance,yeast gene YLR351C,1.2
same,The level of expressed mRNA in the presence of chemical substance/The level of expressed mRNA in the absence of chemical substance,yeast gene YLR356W,0.7
same,The level of expressed mRNA in the presence of chemical substance/The level of expressed mRNA in the absence of chemical substance,yeast gene YLR362W,1.4
same,The level of expressed mRNA in the presence of chemical substance/in the absence of chemical substance,yeast gene YLR375W,1.0
same,The level of expressed mRNA in the presence of chemical substance/,"yeast gene YLR387C, ratio to control without chemical substance, 2 h culture",1.4
same,The level of expressed mRNA in the presence of chemical substance/The level of expressed mRNA in the absence of chemical substance,yeast gene YLR391W,0.7
same,The level of expressed mRNA in the presence of chemical substance/The level of expressed mRNA in the absence of chemical substance,yeast gene YLR429W,1.0
same,The level of expressed mRNA in the presence of chemical substance/,"yeast gene YLR460C, ratio to control without chemical substance, 2 h culture",8.1
same,The level of expressed mRNA in the presence of chemical substance/,"yeast gene YML117W, ratio to control without chemical substance, 2 h culture",0.7
same,The level of expressed mRNA in the presence of chemical substance/The level of expressed mRNA in the absence of chemical substance,yeast gene YMR004W,1.0
same,The level of expressed mRNA in the presence of chemical substance/,"yeast gene YMR009W, ratio to control without chemical substance, 2 h culture",1.4
same,The level of expressed mRNA in the presence of chemical substance/,"yeast gene YMR067C, ratio to control without chemical substance, 2 h culture",1.1
same,The level of expressed mRNA in the presence of chemical substance/,"yeast gene YMR090W, ratio to control without chemical substance, 2 h culture",3.9
same,The level of expressed mRNA in the presence of chemical substance/The level of expressed mRNA in the absence of chemical substance,yeast gene YMR094W,1.0
same,The level of expressed mRNA in the presence of chemical substance/,"yeast gene YMR095C, ratio to control without chemical",1.2
same,The level of expressed mRNA in the presence of chemical substance/,"yeast gene YMR097C, ratio to control without chemical substance, 2 h culture",1.5
same,The level of expressed mRNA in the presence of chemical substance/,"yeast gene YMR102C, ratio to control without chemical substance, 2 h culture",1.0
same,The level of expressed mRNA in the presence of chemical substance/The level of expressed mRNA in the absence of chemical substance,yeast gene YMR104C,0.9
same,The level of expressed mRNA in the presence of chemical substance/,"yeast gene YMR107W, ratio to control without chemical substance, 2 h culture",1.3
same,The level of expressed mRNA in the presence of chemical substance/,"yeast gene YMR180C, ratio to control without chemical substance, 2 h culture",1.8
same,The level of expressed mRNA in the presence of chemical substance/,"yeast gene YMR184W, ratio to control without chemical substance, 2 h culture",1.9
same,The level of expressed mRNA in the presence of chemical substance/,"yeast gene YMR191W, ratio to control without chemical substance, 2 h culture",1.1
same,The level of expressed mRNA in the presence of chemical substance/The level of expressed mRNA in the absence of chemical substance,yeast gene YMR219W,1.1
same,The level of expressed mRNA in the presence of chemical substance/The level of expressed mRNA in the absence of chemical substance,yeast gene YMR226C,1.6
same,The level of expressed mRNA in the presence of chemical substance/in the absence of chemical substance,yeast gene YMR267W,1.5
same,The level of expressed mRNA in the presence of chemical substance/The level of expressed mRNA in the absence of chemical substance,yeast gene YMR275C,0.8
same,The level of expressed mRNA in the presence of chemical substance/The level of expressed mRNA in the absence of chemical substance,yeast gene YMR276W,0.8
same,The level of expressed mRNA in the presence of chemical substance/in the absence of chemical substance,yeast gene YMR278W,1.1
same,The level of expressed mRNA in the presence of chemical substance/in the absence of chemical substance,yeast gene YMR293C,1.0
same,The level of expressed mRNA in the presence of chemical substance/,"yeast gene YMR295C, ratio to control without chemical substance, 2 h culture",1.0
same,The level of expressed mRNA in the presence of chemical substance/The level of expressed mRNA in the absence of chemical substance,yeast gene YMR314W,1.2
same,The level of expressed mRNA in the presence of chemical substance/,"yeast gene YMR316W, ratio to control without chemical substance, 2 h culture",1.6
same,The level of expressed mRNA in the presence of chemical substance/The level of expressed mRNA in the absence of chemical substance,yeast gene YNL006W,1.1
same,The level of expressed mRNA in the presence of chemical substance/The level of expressed mRNA in the absence of chemical substance,yeast gene YNL007C,0.8
same,The level of expressed mRNA in the presence of chemical substance/,"yeast gene YNL044W, ratio to control without chemical substance, 2 h culture",1.8
